Experimental data as given in ChEMBL document CHEMBL4196088, “Induction of cell killing and autophagy by amphiphilic pyrrolidine derivatives on human pancreatic cancer cells” (Eur J Med Chem, 2018).
The source made the active and inactive calls. No cut-off for these calls is given here.

What was measured:
PANC-1 [1] = assay: Growth inhibition of human PANC1 cells at 20 uM after 72 hrs; assay type: functional, cell-based
SK-BR-3 = assay: Growth inhibition of human SKBR3 cells at 20 uM after 72 hrs; assay type: functional, cell-based
PK9 [2] = assay: Growth inhibition of human PK9 cells at 20 uM after 72 hrs by MTT assay; assay type: functional, cell-based
[3] = Induction of apoptosis in HPNE cells assessed as accumulation at sub-G0/G1 phase at 10 uM after 48 hrs by propidium iodide staining based flow cytometry (reference value: 0.7%); assay type: cell-based; conditions: human
[4] = Induction of apoptosis in HPNE cells assessed as accumulation at sub-G0/G1 phase at 10 uM after 72 hrs by propidium iodide staining based flow cytometry (reference value: 6.6%); assay type: cell-based; conditions: human
PK9 [5] = assay: Induction of apoptosis in human PK9 cells assessed as accumulation at sub-G0/G1 phase at 10 uM after 24 hrs by propidium iodide staining based flow cytometry (reference value: 2.2%); assay type: functional
Fibroblast [6] = assay: Induction of apoptosis in human primary fibroblasts at 20 uM after 48 hrs by propidium iodide staining based flow cytometry (reference value: 6.1%); assay type: cell-based
[7] = Induction of apoptosis in HPNE cells assessed as accumulation at sub-G0/G1 phase at 20 uM after 24 hrs by propidium iodide staining based flow cytometry (reference value: 0.6%); assay type: cell-based; conditions: human
PANC-1 [8] = assay: Induction of apoptosis in human PANC1 cells assessed as accumulation at sub-G0/G1 phase at 20 uM after 48 hrs by propidium iodide staining based flow cytometry (reference value: 0.2 to 2.9%); assay type: functional
PK9 [9] = assay: Induction of apoptosis in human PK9 cells assessed as accumulation at sub-G0/G1 phase at 10 uM after 72 hrs by propidium iodide staining based flow cytometry (reference value: 4%); assay type: functional
PK9 [10] = assay: Induction of apoptosis in human PK9 cells assessed as accumulation at sub-G0/G1 phase at 20 uM after 24 hrs by propidium iodide staining based flow cytometry (reference value: 2.2%); assay type: functional
Fibroblast [11] = assay: Induction of apoptosis in human primary fibroblasts assessed as accumulation at sub-G0/G1 phase at 10 uM after 72 hrs by propidium iodide staining based flow cytometry (reference value: 6.7%); assay type: cell-based
Fibroblast [12] = assay: Induction of apoptosis in human primary fibroblasts assessed as accumulation at sub-G0/G1 phase at 10 uM after 24 hrs by propidium iodide staining based flow cytometry (reference value: 4.8%); assay type: cell-based
PANC-1 [13] = assay: Induction of apoptosis in human PANC1 cells assessed as accumulation at sub-G0/G1 phase at 10 uM after 72 hrs by propidium iodide staining based flow cytometry (reference value: 1.6 to 3.2%); assay type: functional
PK9 [14] = assay: Induction of apoptosis in human PK9 cells assessed as accumulation at sub-G0/G1 phase at 20 uM after 48 hrs by propidium iodide staining based flow cytometry (reference value: 3.8%); assay type: functional
PK9 [15] = assay: Induction of apoptosis in human PK9 cells assessed as accumulation at sub-G0/G1 phase at 20 uM after 72 hrs by propidium iodide staining based flow cytometry (reference value: 4%); assay type: functional
HeLa = assay: Growth inhibition of human HeLa cells after 72 hrs; assay type: functional, cell-based
[16] = Induction of apoptosis in HPNE cells assessed as accumulation at sub-G0/G1 phase at 20 uM after 72 hrs by propidium iodide staining based flow cytometry (reference value: 6.6%); assay type: cell-based; conditions: human
Fibroblast [17] = assay: Induction of apoptosis in human primary fibroblasts at 20 uM after 24 hrs by propidium iodide staining based flow cytometry (reference value: 4.8%); assay type: cell-based
[18] = Induction of apoptosis in HPNE cells assessed as accumulation at sub-G0/G1 phase at 10 uM after 24 hrs by propidium iodide staining based flow cytometry (reference value: 0.6%); assay type: cell-based; conditions: human
Fibroblast [19] = assay: Induction of apoptosis in human primary fibroblasts at 20 uM after 72 hrs by propidium iodide staining based flow cytometry (reference value: 6.7%); assay type: cell-based
[20] = Induction of apoptosis in HPNE cells assessed as accumulation at sub-G0/G1 phase at 20 uM after 48 hrs by propidium iodide staining based flow cytometry (reference value: 0.7%); assay type: cell-based; conditions: human
PANC-1 [21] = assay: Induction of apoptosis in human PANC1 cells assessed as accumulation at sub-G0/G1 phase at 20 uM after 24 hrs by propidium iodide staining based flow cytometry (reference value: 0.6 to 0.7%); assay type: functional
PK9 [22] = assay: Induction of apoptosis in human PK9 cells assessed as accumulation at sub-G0/G1 phase at 10 uM after 48 hrs by propidium iodide staining based flow cytometry (reference value: 3.8%); assay type: functional
PANC-1 [23] = assay: Induction of apoptosis in human PANC1 cells assessed as accumulation at sub-G0/G1 phase at 20 uM after 72 hrs by propidium iodide staining based flow cytometry (reference value: 1.6 to 3.2%); assay type: functional
PANC-1 [24] = assay: Induction of apoptosis in human PANC1 cells assessed as accumulation at sub-G0/G1 phase at 10 uM after 48 hrs by propidium iodide staining based flow cytometry (reference value: 0.2 to 2.9%); assay type: functional
Fibroblast [25] = assay: Induction of apoptosis in human primary fibroblasts assessed as accumulation at sub-G0/G1 phase at 10 uM after 48 hrs by propidium iodide staining based flow cytometry (reference value: 6.1%); assay type: cell-based
PANC-1 [26] = assay: Induction of apoptosis in human PANC1 cells assessed as accumulation at sub-G0/G1 phase at 10 uM after 24 hrs by propidium iodide staining based flow cytometry (reference value: 0.6 to 0.7%); assay type: functional
BXPC-3 [27] = assay: Induction of apoptosis in human BxPC3 cells assessed as accumulation at sub-G0/G1 phase at 10 uM after 72 hrs by propidium iodide staining based flow cytometry (reference value: 3.4%); assay type: functional
BXPC-3 [28] = assay: Induction of apoptosis in human BxPC3 cells assessed as accumulation at sub-G0/G1 phase at 10 uM after 24 hrs by propidium iodide staining based flow cytometry (reference value: 1.8%); assay type: functional
BXPC-3 [29] = assay: Induction of apoptosis in human BxPC3 cells harboring pSFFV-Bcl-XL assessed as accumulation at sub-G0/G1 phase at 10 uM after 24 hrs by propidium iodide staining based flow cytometry (reference value: 1.5%); assay type: functional
BXPC-3 [30] = assay: Induction of apoptosis in human BxPC3 cells assessed as accumulation at sub-G0/G1 phase harboring pSFFV-Bcl-XL at 20 uM after 72 hrs by propidium iodide staining based flow cytometry (reference value: 1.3%); assay type: functional
BXPC-3 [31] = assay: Induction of apoptosis in human BxPC3 cells assessed as accumulation at sub-G0/G1 phase harboring pSFFV-Bcl-XL at 20 uM after 24 hrs by propidium iodide staining based flow cytometry (reference value: 1.2%); assay type: functional
BXPC-3 [32] = assay: Induction of apoptosis in human BxPC3 cells harboring pSFFV-Bcl-XL assessed as accumulation at sub-G0/G1 phase at 10 uM after 72 hrs by propidium iodide staining based flow cytometry (reference value: 2%); assay type: functional
BXPC-3 [33] = assay: Induction of apoptosis in human BxPC3 cells assessed as accumulation at sub-G0/G1 phase at 20 uM after 48 hrs by propidium iodide staining based flow cytometry (reference value: 2.8%); assay type: functional
BXPC-3 [34] = assay: Induction of apoptosis in human BxPC3 cells assessed as accumulation at sub-G0/G1 phase harboring pSFFV-Bcl-XL at 20 uM after 48 hrs by propidium iodide staining based flow cytometry (reference value: 1.3%); assay type: functional
BXPC-3 [35] = assay: Induction of apoptosis in human BxPC3 cells harboring pSFFV-Bcl-XL assessed as accumulation at sub-G0/G1 phase at 10 uM after 48 hrs by propidium iodide staining based flow cytometry (reference value: 1.9%); assay type: functional
BXPC-3 [36] = assay: Induction of apoptosis in human BxPC3 cells assessed as accumulation at sub-G0/G1 phase at 10 uM after 48 hrs by propidium iodide staining based flow cytometry (reference value: 2.8%); assay type: functional
BXPC-3 [37] = assay: Induction of apoptosis in human BxPC3 cells assessed as accumulation at sub-G0/G1 phase at 20 uM after 24 hrs by propidium iodide staining based flow cytometry (reference value: 2.3%); assay type: functional
BXPC-3 [38] = assay: Induction of apoptosis in human BxPC3 cells assessed as accumulation at sub-G0/G1 phase at 20 uM after 72 hrs by propidium iodide staining based flow cytometry (reference value: 3.4%); assay type: functional

| SMILES | growth inhibition (GI) (PANC-1 [1]) | growth inhibition (GI) (SK-BR-3) | growth inhibition (GI) (PK9 [2]) | Activity [3] [%] | Activity [4] [%] | Activity (PK9 [5]) [%] | Activity [7] [%] | Activity (PANC-1 [8]) [%] | Activity (PK9 [9]) [%] | Activity (PK9 [10]) [%] | Activity (Fibroblast [11]) [%] | Activity (Fibroblast [12]) [%] | Activity (PANC-1 [13]) [%] | Activity (PK9 [14]) [%] | Activity (PK9 [15]) [%] | Activity [16] [%] | Activity [18] [%] | Activity [20] [%] | Activity (PANC-1 [21]) [%] | Activity (PK9 [22]) [%] | also measured |
| --- | --- | --- | --- | --- | --- | --- | --- | --- | --- | --- | --- | --- | --- | --- | --- | --- | --- | --- | --- | --- | --- |
| CCCCCCCC/C=C\CCCCCCCCOC[C@@H]1[C@@H](O)[C@@H](O)CN1CCCC | inactive | Active | inactive |  |  |  |  |  |  |  |  |  |  |  |  |  |  |  |  |  |  |
| CCCCCCCC/C=C\CCCCCCCCOC[C@@H]1[C@@H](O)[C@@H](O)CN1C(C)=O | inactive | Active | inactive |  |  |  |  |  |  |  |  |  |  |  |  |  |  |  |  |  |  |
| Cl.O[C@H]1CN[C@H](COCCCCCCCCC/C=C/c2ccc(Oc3ccccc3)cc2)C1 |  |  |  | 86.1 | 88 | 4.3 | 62.4 | 49.5 | 5.4 | 20.6 | 6.5 | 9.8 | 35.1 | 23.1 | 27.8 | 91.2 | 67.1 | 86.8 | 8.9 | 10.8 | Activity (Fibroblast [6]): 87.9%; IC50 (HeLa): 3.6 µM; Activity (Fibroblast [17]): 75.1%; Activity (Fibroblast [19]): 82.1%; Activity (PANC-1 [23]): 56.1%; Activity (PANC-1 [24]): 25.3%; Activity (Fibroblast [25]): 6.6%; Activity (PANC-1 [26]): 11.5% |
| CCCCCCCC/C=C\CCCCCCCCOCC[C@H]1NC[C@H](O)[C@@H]1O |  |  |  | 22.2 | 62.8 | 2.8 | 63.8 | 13.6 | 2.7 | 8.3 | 9.2 | 8.7 | 9.7 | 30.5 | 37.7 | 73 | 12.1 | 67.5 | 5 | 3.4 | Activity (BXPC-3 [27]): 14.6%; Activity (BXPC-3 [28]): 4.6%; Activity (BXPC-3 [29]): 3%; Activity (BXPC-3 [30]): 4.1%; Activity (BXPC-3 [31]): 2.3%; Activity (BXPC-3 [32]): 3.1%; Activity (BXPC-3 [33]): 32.5%; Activity (BXPC-3 [34]): 3.4%; Activity (BXPC-3 [35]): 3.1%; Activity (BXPC-3 [36]): 11.5%; Activity (PANC-1 [23]): 22.6%; Activity (PANC-1 [24]): 3.9%; Activity (BXPC-3 [37]): 17.7%; Activity (Fibroblast [25]): 8.2%; Activity (BXPC-3 [38]): 46.2%; Activity (PANC-1 [26]): 4.7% |
| CCCCCCCC/C=C\CCCCCCCCOC[C@@H]1[C@@H](O)[C@@H](O)CN1C(C)C | inactive | Active | inactive |  |  |  |  |  |  |  |  |  |  |  |  |  |  |  |  |  |  |
